Legend:
[1] = test system: bicistronic HCV replicon (replicon RNA, GenBank Accession No. AJ242654); assay: HCV Replicon Assay; assay type: cell-based; details: Hepatitis C virus, 72 h, read-out: Replicon IC50

With Cc1ccc2c(C#N)c(-c3ncc(S(=O)(=O)N[C@H](C)C(F)(F)F)cn3)n(C3CCC3)c2c1 [compound 181, 2-(3-cyano-1-cyclobutyl-6-methyl-1H-indol-2-yl)-N-[(2R)-1,1,1-trifluoropropan-2-yl]pyrimidine-5-sulfonamide] the IC50 [1] was under 500 nM and the melting point was 143 to 145 °C.

Cc1cc2c(cc1F)c(C#N)c(-c1ccc(S(=O)(=O)N[C@@H](C)C(F)(F)F)cn1)n2-c1ccncc1 [compound 933, 6-[3-cyano-5-fluoro-6-methyl-1-(pyridin-4-yl)-1H-indol-2-yl]-N-[(2S)-1,1,1-trifluoropropan-2-yl]pyridine-3-sulfonamide] showed an IC50 [1] of under 500 nM and a melting point of 250 to 255 °C.

Work on N#Cc1c(-c2ccc(S(=O)(=O)NC(CF)CF)cn2)n(C2CC2)c2cc(OC(F)F)ccc12 [compound 42, 6-[3-cyano-1-cyclopropyl-6-(difluoromethoxy)-1H-indol-2-yl]-N-(1,3-difluoropropan-2-yl)pyridine-3-sulfonamide] yielded an IC50 [1] of under 500 nM and a melting point of 219 to 220 °C.

COc1ccc2c(C#N)c(-c3ccc(NS(=O)(=O)C(C)(C)C)nn3)n(C3CCC3)c2c1 [compound 278, N-[6-(3-cyano-1-cyclobutyl-6-methoxy-1H-indol-2-yl)pyridazin-3-yl]-2-methylpropane-2-sulfonamide] gave an IC50 [1] of 500 to 2000 nM and a melting point of 218 to 220 °C.

Work on C[C@@H](NS(=O)(=O)c1ccc(-c2c(C#N)c3cc(F)c(C4CC4)cc3n2C2CCC2)nc1)C(F)(F)F [compound 631, 6-(3-cyano-1-cyclobutyl-6-cyclopropyl-5-fluoro-1H-indol-2-yl)-N-[(2R)-1,1,1-trifluoropropan-2-yl]pyridine-3-sulfonamide] yielded an IC50 [1] of under 500 nM and a melting point of 190 to 194 °C.

With Cc1nc(NS(=O)(=O)C(C)(C)C)ccc1-c1c(C(N)=O)c2cc(F)c(OC(F)F)cc2n1C(C)C [compound 1095, 2-{6-[(tert-butylsulfonyl)amino]-2-methylpyridin-3-yl}-6-(difluoromethoxy)-5-fluoro-1-(propan-2-yl)-1H-indole-3-carboxamide] the IC50 [1] was 500 to 2000 nM and the melting point was 234 to 235 °C.

With N#Cc1c(-c2ncc(S(=O)(=O)NC(CF)CF)cn2)n(CC2CC2)c2cc(F)ccc12 [compound 164, 2-[3-cyano-1-(cyclopropylmethyl)-6-fluoro-1H-indol-2-yl]-N-(1,3-difluoropropan-2-yl)pyrimidine-5-sulfonamide] the IC50 [1] was 500 to 2000 nM and the melting point was 176 to 178 °C.

Work on Cc1cc2c(cc1O)c(C(N)=O)c(-c1ccc(S(=O)(=O)NC(C)(C)C)cn1)n2C1CCC1 [compound 828, 2-[5-(tert-butylsulfamoyl)pyridin-2-yl]-1-cyclobutyl-5-hydroxy-6-methyl-1H-indole-3-carboxamide] yielded an IC50 [1] of 2000 to 5000 nM and a melting point of 292 to 293 °C.

With N#Cc1c(-c2ccc(S(=O)(=O)NC(CF)CF)cn2)n(C2CCCCC2)c2cc(F)ccc12 [compound 234, 6-(3-cyano-1-cyclohexyl-6-fluoro-1H-indol-2-yl)-N-(1,3-difluoropropan-2-yl)pyridine-3-sulfonamide] the IC50 [1] was under 500 nM and the melting point was 193 to 199 °C.

In the case of N#Cc1c(-c2ncc(S(=O)(=O)NC(CF)CF)cn2)n(-c2ccccc2)c2cc(OC(F)F)ccc12 [compound 610, 2-[3-cyano-6-(difluoromethoxy)-1-phenyl-1H-indol-2-yl]-N-(1,3-difluoropropan-2-yl)pyrimidine-5-sulfonamide], the IC50 [1] is reported as under 500 nM and the melting point is reported as 206 to 208 °C.

For N#Cc1c(-c2ncc(S(=O)(=O)NC(CF)CF)cn2)n(C2CCCCC2)c2cc(C3CC3)ccc12 [compound 193, 2-(3-cyano-1-cyclohexyl-6-cyclopropyl-1H-indol-2-yl)-N-(1,3-difluoropropan-2-yl)pyrimidine-5-sulfonamide], the IC50 [1] was under 500 nM and the melting point was > 200 °C (dec.).

With Cc1ccc2c(c1)c(C#N)c(-c1ccc(S(=O)(=O)N[C@@H](C)C3CC3)cn1)n2C1CCCCC1 [compound 606, 6-(3-cyano-1-cyclohexyl-5-methyl-1H-indol-2-yl)-N-[(1S)-1-cyclopropylethyl]pyridine-3-sulfonamide] the IC50 [1] was under 500 nM and the melting point was 169 to 174 °C.

Work on N#Cc1c(-c2ccc(S(=O)(=O)NC(CF)CF)cn2)n(CC2CC2)c2cc(Cl)ccc12 [compound 62, 6-[6-chloro-3-cyano-1-(cyclopropylmethyl)-1H-indol-2-yl]-N-(1,3-difluoropropan-2-yl)pyridine-3-sulfonamide] yielded an IC50 [1] of under 500 nM and a melting point of 223 to 227 °C.

CCc1cc(F)c2c(C(N)=O)c(-c3ccc(NS(=O)(=O)C(C)(C)C)nc3)n(-c3ccccc3)c2c1 [compound 1111, 2-{6-[(tert-butylsulfonyl)amino]pyridin-3-yl}-6-ethyl-4-fluoro-1-phenyl-1H-indole-3-carboxamide] showed an IC50 [1] of under 500 nM and a melting point of 288 to 294 °C.

Work on C[C@@H](NS(=O)(=O)c1ccc(-c2c(C(N)=O)c3cc(F)c(C4CC4)cc3n2C2CCCC2)nc1)C(F)(F)F [compound 829, 1-cyclopentyl-6-cyclopropyl-5-fluoro-2-(5-{[(2R)-1,1,1-trifluoropropan-2-yl]sulfamoyl}pyridin-2-yl)-1H-indole-3-carboxamide] yielded an IC50 [1] of under 500 nM and a melting point of 233 to 234 °C.

Compound Cc1cc2c(cc1F)c(C#N)c(-c1ccc(S(=O)(=O)N[C@@H](C)C(F)(F)F)cn1)n2-c1nc(C#N)co1 [compound 1074, 6-[3-cyano-1-(4-cyano-1,3-oxazol-2-yl)-5-fluoro-6-methyl-1H-indol-2-yl]-N-[(2S)-1,1,1-trifluoropropan-2-yl]pyridine-3-sulfonamide] has an IC50 [1] of under 500 nM and a melting point of 212.2 to 216.9 °C.

In the case of N#Cc1c(-c2ccc(S(=O)(=O)NC(CF)CF)cn2)n(C2CCC2)c2cc(Cl)c(F)cc12 [compound 50, 6-(6-chloro-3-cyano-1-cyclobutyl-5-fluoro-1H-indol-2-yl)-N-(1,3-difluoropropan-2-yl)pyridine-3-sulfonamide], the IC50 [1] is reported as under 500 nM and the melting point is reported as 211 to 213 °C.

Compound Cc1ccc2c(C#N)c(-c3ccc(S(=O)(=O)N[C@H](C)C(F)(F)F)cn3)n(CC3CC3)c2c1 [compound 197, 6-[3-cyano-1-(cyclopropylmethyl)-6-methyl-1H-indol-2-yl]-N-[(2R)-1,1,1-trifluoropropan-2-yl]pyridine-3-sulfonamide] has an IC50 [1] of under 500 nM and a melting point of 165 to 169 °C.

In the case of Cc1cc2c(cc1F)c(C(N)=O)c(-c1ccc(S(=O)(=O)NC(C)(C)C)cn1)n2C1CCCCC1 [compound 1115, 2-[5-(tert-butylsulfamoyl)pyridin-2-yl]-1-cyclohexyl-5-fluoro-6-methyl-1H-indole-3-carboxamide], the IC50 [1] is reported as under 500 nM and the melting point is reported as 274.5 to 275.6 °C.

Work on C[C@H](NS(=O)(=O)c1ccc(-c2c(C#N)c3cc(F)c(C4CC4)cc3n2C2CCCC2)nc1)C(F)(F)F [compound 661, 6-(3-cyano-1-cyclopentyl-6-cyclopropyl-5-fluoro-1H-indol-2-yl)-N-[(2S)-1,1,1-trifluoropropan-2-yl]pyridine-3-sulfonamide] yielded an IC50 [1] of under 500 nM and a melting point of 189 to 190 °C.

In the case of Cc1ccc(-n2c(-c3ccc(S(=O)(=O)NC(CF)CF)cn3)c(C#N)c3cc(F)ccc32)cc1 [compound 356, 6-[3-cyano-5-fluoro-1-(4-methylphenyl)-1H-indol-2-yl]-N-(1,3-difluoropropan-2-yl)pyridine-3-sulfonamide], the IC50 [1] is reported as under 500 nM and the melting point is reported as 208 to 210 °C.

CC(NS(=O)(=O)c1cnc(-c2c(C#N)c3ccc(OC(F)F)cc3n2C2CCC2)nc1)C(F)(F)F (stereo not shown) [compound 128, 2-[3-cyano-1-cyclobutyl-6-(difluoromethoxy)-1H-indol-2-yl]-N-(1,1,1-trifluoropropan-2-yl)pyrimidine-5-sulfonamide] gave an IC50 [1] of under 500 nM and a melting point of 227 to 229 °C.

CC(C)(C)S(=O)(=O)Nc1ccc(-c2c(C#N)c3cc(F)c(C4CC4)cc3n2-c2ccccc2)cn1 [compound 1101, N-[5-(3-cyano-6-cyclopropyl-5-fluoro-1-phenyl-1H-indol-2-yl)pyridin-2-yl]-2-methylpropane-2-sulfonamide] gave an IC50 [1] of 500 to 2000 nM and a melting point of 249 to 250 °C.

CCc1ccc2c(C#N)c(-c3ccc(S(=O)(=O)NC(C)(C)C(F)(F)F)cn3)n(C3CCC3)c2c1 [compound 481, 6-(3-cyano-1-cyclobutyl-6-ethyl-1H-indol-2-yl)-N-(1,1,1-trifluoro-2-methylpropan-2-yl)pyridine-3-sulfonamide] showed an IC50 [1] of under 500 nM and a melting point of 160 to 165 °C.

With C[C@H](NS(=O)(=O)c1ccc(-c2c(C#N)c3cc(Cl)ccc3n2-c2ncccn2)nc1)C(F)(F)F [compound 708, 6-[5-chloro-3-cyano-1-(pyrimidin-2-yl)-1H-indol-2-yl]-N-[(2S)-1,1,1-trifluoropropan-2-yl]pyridine-3-sulfonamide] the IC50 [1] was under 500 nM and the melting point was 193 to 196 °C.

Cc1ccc2c(c1)c(C(N)=O)c(-c1ccc(S(=O)(=O)N[C@@H](C)C(F)(F)F)cn1)n2-c1cnccn1 [compound 916, 5-methyl-1-(pyrazin-2-yl)-2-(5-{[(2S)-1,1,1-trifluoropropan-2-yl]sulfamoyl}pyridin-2-yl)-1H-indole-3-carboxamide] showed an IC50 [1] of under 500 nM and a melting point of 240 to 245 °C.

Compound N#Cc1c(-c2ccc(S(=O)(=O)NC(CF)CF)cn2)n(-c2ccccc2F)c2cc(OC(F)F)ccc12 [compound 227, 6-[3-cyano-6-(difluoromethoxy)-1-(2-fluorophenyl)-1H-indol-2-yl]-N-(1,3-difluoropropan-2-yl)pyridine-3-sulfonamide] has an IC50 [1] of under 500 nM and a melting point of 188 to 191 °C.

Cc1cc2c(cc1F)c(C(=O)O)c(-c1ccc(S(=O)(=O)NC(C)(C)C(F)(F)F)cn1)n2C1CCCC1 [compound 765, 1-cyclopentyl-5-fluoro-6-methyl-2-{5-[(1,1,1-trifluoro-2-methylpropan-2-yl)sulfamoyl]pyridin-2-yl}-1H-indole-3-carboxylic acid] showed an IC50 [1] of under 500 nM and a melting point of 233 to 234 °C.

For N#Cc1ccc2c(C#N)c(-c3ncc(S(=O)(=O)NC(CF)CF)cn3)n(C3CCCC3)c2c1 [compound 469, 2-(3,6-dicyano-1-cyclopentyl-1H-indol-2-yl)-N-(1,3-difluoropropan-2-yl)pyrimidine-5-sulfonamide], the IC50 [1] was 500 to 2000 nM and the melting point was 246 to 247 °C.
